We go through 4 compounds from paper PMC7766220, “Design, Synthesis and Comprehensive Investigations of Pyrrolo[3,4-d]pyridazinone-Based 1,3,4-Oxadiazole as New Class of Selective COX-2 Inhibitors” (International Journal of Molecular Sciences, 2020).

Assay [1] deals with T1, Bovine Serum Albumin (BSA) (Bos taurus, UniProt P02769).
T1 construct: gene ALB
The assay is described as follows: intrinsic fluorescence quenching, excitation […] nm. Type of assay: binding. As to conditions: 294 K, pH 7.4, no site marker, double-log.

The next assay deals with T2, COX-2 (Homo sapiens, UniProt P35354).
T2 construct: gene PTGS2; docking used 4M11
T2 sequence (P35354 18-604): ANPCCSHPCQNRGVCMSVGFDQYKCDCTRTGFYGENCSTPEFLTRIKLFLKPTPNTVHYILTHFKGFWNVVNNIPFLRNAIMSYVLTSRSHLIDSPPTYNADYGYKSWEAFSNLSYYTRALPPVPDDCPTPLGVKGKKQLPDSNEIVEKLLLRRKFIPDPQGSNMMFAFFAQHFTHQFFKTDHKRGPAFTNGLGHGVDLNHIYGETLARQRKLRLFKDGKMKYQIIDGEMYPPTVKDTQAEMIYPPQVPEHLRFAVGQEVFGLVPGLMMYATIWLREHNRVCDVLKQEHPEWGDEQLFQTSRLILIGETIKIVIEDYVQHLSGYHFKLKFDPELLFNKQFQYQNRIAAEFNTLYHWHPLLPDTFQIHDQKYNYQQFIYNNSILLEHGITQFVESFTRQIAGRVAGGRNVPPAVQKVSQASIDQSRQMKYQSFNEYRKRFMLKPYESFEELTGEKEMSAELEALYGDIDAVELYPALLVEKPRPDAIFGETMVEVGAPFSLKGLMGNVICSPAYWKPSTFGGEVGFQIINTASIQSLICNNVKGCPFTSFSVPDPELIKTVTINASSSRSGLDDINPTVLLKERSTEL
The assay is described as follows: colorimetric COX peroxidase assay, […] nm (Cayman […]). The format is biochemical. As to conditions: read-out: Cyclooxygenase Inhibition Assay IC50 [μM] / COX-2.

Where [2] appears, read: unreliable (Table 5 rows of 5a and 5b are identical, likely a copying error).

T1 sequence (P02769 25-607): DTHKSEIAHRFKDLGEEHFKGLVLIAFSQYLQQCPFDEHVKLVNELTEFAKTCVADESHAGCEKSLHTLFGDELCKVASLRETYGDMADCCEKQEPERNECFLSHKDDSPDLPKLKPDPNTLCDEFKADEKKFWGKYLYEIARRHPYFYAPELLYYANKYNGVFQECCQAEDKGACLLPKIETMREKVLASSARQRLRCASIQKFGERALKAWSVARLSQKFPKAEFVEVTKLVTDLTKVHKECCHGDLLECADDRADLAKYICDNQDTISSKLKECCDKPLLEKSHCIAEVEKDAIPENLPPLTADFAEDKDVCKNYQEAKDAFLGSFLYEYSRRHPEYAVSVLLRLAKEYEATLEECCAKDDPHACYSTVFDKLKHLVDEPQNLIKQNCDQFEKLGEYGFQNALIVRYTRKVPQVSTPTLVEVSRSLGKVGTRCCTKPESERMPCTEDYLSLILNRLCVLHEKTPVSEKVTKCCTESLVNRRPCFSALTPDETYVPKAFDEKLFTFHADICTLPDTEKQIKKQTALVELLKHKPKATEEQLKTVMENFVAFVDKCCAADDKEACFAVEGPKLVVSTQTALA

Regarding `CCCCn1c(C)c2c(OCc3nnc(SCC(=O)N4CCN(c5ccccc5)CC4)o3)nn(C)c(=O)c2c1C` [5b, 6-butyl-3,5,7-trimethyl-1-[[2-[2-oxo-2-(4-phenylpiperazin-1-yl)ethyl]sulfanyl-1,3,4-oxadiazol-5-yl]methoxy]pyrrolo[3,4-d]pyridazin-4-one], the “Binding / Kb × 10^4 [dm^3.mol^-1]” value in assay [1] (setting [2]) is 12.30 × 10^4 dm^3·mol^−1. At COX-2, the IC50 worked out at 257 µM.

Turning to `CCCCn1c(C)c2c(OCc3nnc(SCC(=O)N4CCN(c5ncccn5)CC4)o3)nn(C)c(=O)c2c1C` [6b, 6-butyl-3,5,7-trimethyl-1-[[2-[2-oxo-2-(4-pyrimidin-2-ylpiperazin-1-yl)ethyl]sulfanyl-1,3,4-oxadiazol-5-yl]methoxy]pyrrolo[3,4-d]pyridazin-4-one], in assay [1], the “Binding / Kb × 10^4 [dm^3.mol^-1]” value is 8.51 × 10^4 dm^3·mol^−1. The IC50 on COX-2 came to 371 µM.

On to `Cc1c2c(OCc3nnc(SCC(=O)N4CCN(c5ccccc5)CC4)o3)nn(C)c(=O)c2c(C)n1-c1ccccc1` [5a, 3,5,7-trimethyl-1-[[2-[2-oxo-2-(4-phenylpiperazin-1-yl)ethyl]sulfanyl-1,3,4-oxadiazol-5-yl]methoxy]-6-phenyl-pyrrolo[3,4-d]pyridazin-4-one], for which the “Binding / Kb × 10^4 [dm^3.mol^-1]” value in assay [1] (setting [2]) is given as 12.30 × 10^4 dm^3·mol^−1. Further, the IC50 on COX-2 worked out at 659 µM.

With `Cc1c2c(OCc3nnc(SCC(=O)N4CCN(c5ncccn5)CC4)o3)nn(C)c(=O)c2c(C)n1-c1ccccc1` [6a, 3,5,7-trimethyl-1-[[2-[2-oxo-2-(4-pyrimidin-2-ylpiperazin-1-yl)ethyl]sulfanyl-1,3,4-oxadiazol-5-yl]methoxy]-6-phenyl-pyrrolo[3,4-d]pyridazin-4-one], the “Binding / Kb × 10^4 [dm^3.mol^-1]” value in assay [1] is given as 7.24 × 10^4 dm^3·mol^−1. For the same compound, the IC50 on COX-2 was 160 µM.
